This is an account of results in US11464770B2, “Anticancer pharmaceutical composition” (NATIONAL CANCER CENTER, priority 2016, dated 2022).

Like-named read-outs stand apart in the source and are kept apart here.

In the test the test system is breast cancer cell lines (e.g. MDA-MB-231, SK-BR-3, MDA-MB-468, HCC1954). The experiment in a line: Cell based assay, cell viability (CellTiter-Glo), breast cancer cell lines. The essentials:
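Read-out is ATP-dependent luminescence (CellTiter-Glo) taken after 72 h of exposure to compound at final concentrations from 0 to 2 μM. Cells were plated 24 h beforehand.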

[1] abbreviates: Breast cancer cell line MDA-MB-231-L/DOX, 72 hours, CellTiter-Glo, read-out: IC50, MDA-MB-231-L/DOX.
The mark [2] stands for this setting: Homo sapiens, Breast cancer cell line BT-20, 72 hours, CellTiter-Glo, read-out: IC50, BT-20.
Where [3] appears, read: Homo sapiens, Breast cancer cell line HCC1395, 72 hours, CellTiter-Glo, read-out: IC50, HCC1395.
[4] abbreviates: Homo sapiens, Breast cancer cell line HCC1954, 72 hours, CellTiter-Glo, read-out: IC50, HCC1954.
The mark [5] stands for this setting: Homo sapiens, Breast cancer cell line JIMT-1, 72 hours, CellTiter-Glo, read-out: IC50, JIMT-1.
The mark [6] stands for this setting: Homo sapiens, Breast cancer cell line MCF7, 72 hours, CellTiter-Glo, read-out: IC50, MCF7.
Where [7] appears, read: Homo sapiens, Breast cancer cell line MDA-MB-231, 72 hours, CellTiter-Glo, read-out: IC50, MDA-MB-231.
The mark [8] stands for this setting: Homo sapiens, Breast cancer cell line MDA-MB-468, 72 hours, CellTiter-Glo, read-out: IC50, MDA-MB-468.
Setting [9] is: Homo sapiens, Breast cancer cell line SK-BR-3, 72 hours, CellTiter-Glo, read-out: IC50, SK-BR-3.
The mark [10] stands for this setting: Homo sapiens, BT-20 cells, 72 hours treatment, CellTiter-Glo cell viability, read-out: IC50, Breast cancer cell line BT-20.
The mark [11] stands for this setting: Homo sapiens, HCC1395 cells, 72 hours treatment, CellTiter-Glo cell viability, read-out: IC50, Breast cancer cell line HCC1395.
Where [12] appears, read: Homo sapiens, HCC1954 cells, 72 hours treatment, CellTiter-Glo cell viability, read-out: IC50, Breast cancer cell line HCC1954.
Where [13] appears, read: Homo sapiens, JIMT-1 cells, 72 hours treatment, CellTiter-Glo cell viability, read-out: IC50, Breast cancer cell line JIMT-1.
[14] abbreviates: Homo sapiens, MCF7 cells, 72 hours treatment, CellTiter-Glo cell viability, read-out: IC50, Breast cancer cell line MCF7.
Setting [15] is: Homo sapiens, MDA-MB-231 cells, 72 hours treatment, CellTiter-Glo cell viability, read-out: IC50, Breast cancer cell line MDA-MB-231.
[16] abbreviates: Homo sapiens, MDA-MB-468 cells, 72 hours treatment, CellTiter-Glo cell viability, read-out: IC50, Breast cancer cell line MDA-MB-468.
Where [17] appears, read: Homo sapiens, SK-BR-3 cells, 72 hours treatment, CellTiter-Glo cell viability, read-out: IC50, Breast cancer cell line SK-BR-3.
The mark [18] stands for this setting: MDA-MB-231-L/DOX cells, 72 hours treatment, CellTiter-Glo cell viability, read-out: IC50, Breast cancer cell line MDA-MB-231-L/DOX.

Take `CC(=O)c1c([S+](C)[O-])n(C(=O)c2ccc(Br)cc2)c2c(Br)ccc(Cl)c2c1=O` (stereo not drawn) [Compound 9, 3-acetyl-8-bromo-1-(4-bromobenzoyl)-5-chloro-2-(methylsulfinyl)quinolin-4(1H)-one]: the IC50 runs as follows: under setting [1], above 2 µM; under setting [2], above 2 µM; under setting [3], above 10 µM; under setting [4], above 2 µM; under setting [5], above 10 µM; under setting [6], above 2 µM. For the same compound, the IC50 was above 2 µM under setting [7], above 2 µM under setting [8] and 0.85 µM under setting [9].

As to `CC(=O)c1c([S+]([O-])Cc2ccccc2C#N)[nH]c2c(Br)ccc(Cl)c2c1=O` (stereo not drawn) [Compound 58, 2-(((3-acetyl-8-bromo-5-chloro-4-oxo-1,4-dihydroquinolin-2-yl)sulfinyl)methyl)benzonitrile], the IC50 under setting [1] is above 2 µM; the IC50 under setting [2] is above 2 µM; the IC50 under setting [3] was above 10 µM; the IC50 under setting [4] is above 2 µM; the IC50 under setting [5] is above 10 µM; the IC50 under setting [6] was above 2 µM. Besides, the IC50 is, setting by setting: under setting [7], above 2 µM; under setting [8], above 2 µM; under setting [9], 0.62 µM.

In the case of `CC(=O)c1c([S+]([O-])Cc2ccccc2)n(C(=O)c2ccc(Br)cc2)c2c(Br)ccc(Cl)c2c1=O` (stereo not drawn) [Compound 20, 3-acetyl-2-(benzylsulfinyl)-8-bromo-1-(4-bromobenzoyl)-5-chloroquinolin-4(1H)-one], the IC50 runs as follows: under setting [1], above 2 µM; under setting [2], above 2 µM; under setting [3], above 10 µM; under setting [4], above 2 µM; under setting [5], above 10 µM; under setting [6], above 2 µM. In addition, the IC50 was above 2 µM under setting [7], above 2 µM under setting [8] and above 2 µM under setting [9].

`CC(=O)c1c([S+]([O-])Cc2cc(C)on2)[nH]c2c(F)ccc(F)c2c1=O` (stereo not drawn) [Compound 82, 3-acetyl-5,8-difluoro-2-(((5-methylisoxazol-3-yl)methyl)sulfinyl)quinolin-4(1H)-one]: the IC50 is, setting by setting: under setting [10], above 2 µM; under setting [11], above 10 µM; under setting [12], above 2 µM; under setting [13], above 10 µM; under setting [14], above 2 µM; under setting [15], above 2 µM. Moreover, the IC50 runs as follows: under setting [16], above 2 µM; under setting [17], 1.77 µM; under setting [18], above 2 µM.

As to `CC(C)C(=O)c1c([S+]([O-])Cc2ccc(SC(F)(F)F)cc2)[nH]c2c(F)ccc(F)c2c1=O` (stereo not drawn) [Compound 85, 5,8-difluoro-3-isobutyryl-2-((4-((trifluoromethyl)thio)benzyl)sulfinyl)quinolin-4(1H)-one], the IC50 by setting is: under setting [10], above 2 µM; under setting [11], above 10 µM; under setting [12], above 2 µM; under setting [13], above 10 µM; under setting [14], above 2 µM; under setting [15], above 2 µM. Besides, the IC50 by setting is: under setting [16], above 2 µM; under setting [17], above 2 µM; under setting [18], above 2 µM.

Regarding `COc1cccc2[nH]c([S+]([O-])Cc3cc(C)on3)c(C(C)=O)c(=O)c12` (stereo not drawn) [Compound 94, 3-acetyl-5-methoxy-2-(((5-methylisoxazol-3-yl)methyl)sulfinyl)quinolin-4(1H)-one], the IC50 runs as follows: under setting [10], above 2 µM; under setting [11], above 10 µM; under setting [12], above 2 µM; under setting [13], above 10 µM; under setting [14], above 2 µM; under setting [15], above 2 µM. The IC50 was 1.85 µM under setting [16], 1.85 µM under setting [17] and above 2 µM under setting [18].

For the compound `CC(=O)c1c([S+]([O-])Cc2cccc(C#N)c2)[nH]c2c(Br)ccc(Cl)c2c1=O` (stereo not drawn) [Compound 28, 3-(((3-acetyl-8-bromo-5-chloro-4-oxo-1,4-dihydroquinolin-2-yl)sulfinyl)methyl)benzonitrile], the IC50 under setting [1] was above 2 µM; the IC50 under setting [2] is above 2 µM; the IC50 under setting [3] was above 10 µM; the IC50 under setting [4] is above 2 µM; the IC50 under setting [5] was above 10 µM; the IC50 under setting [6] is above 2 µM. The IC50 by setting is: under setting [7], 1.41 µM; under setting [8], above 2 µM; under setting [9], 0.66 µM.

For `CC(=O)c1c([S+]([O-])Cc2ccc(NS(C)(=O)=O)cc2)[nH]c2c(Br)ccc(Cl)c2c1=O` (stereo not drawn) [Compound 103, N-(4-(((3-acetyl-8-bromo-5-chloro-4-oxo-1,4-dihydroquinolin-2-yl)sulfinyl)methyl)phenyl)methane-sulfonamide], the IC50 by setting is: under setting [10], above 2 µM; under setting [11], above 10 µM; under setting [12], above 2 µM; under setting [13], above 10 µM; under setting [14], above 2 µM; under setting [15], above 2 µM. For the same compound, the IC50 runs as follows: under setting [16], above 2 µM; under setting [17], 1.74 µM; under setting [18], above 2 µM.

For `COCSc1[nH]c2c(Br)ccc(Cl)c2c(=O)c1C(C)=O` [Compound 61, 3-acetyl-8-bromo-5-chloro-2-((methoxymethyl)thio)quinolin-4(1H)-one], the IC50 reads like this: under setting [1], above 2 µM; under setting [2], above 2 µM; under setting [3], above 10 µM; under setting [4], above 2 µM; under setting [5], above 10 µM; under setting [6], above 2 µM. Moreover, the IC50 by setting is: under setting [7], above 2 µM; under setting [8], above 2 µM; under setting [9], above 2 µM.

As to `CC(=O)c1c([S+]([O-])Cc2ccc(Cl)cc2)[nH]c2c(Br)ccc(Cl)c2c1=O` (stereo not drawn) [Compound 11, 3-acetyl-8-bromo-5-chloro-2-((4-chlorobenzyl)sulfinyl)quinolin-4(1H)-one], the IC50 is, setting by setting: under setting [1], above 2 µM; under setting [2], above 2 µM; under setting [3], above 10 µM; under setting [4], above 2 µM; under setting [5], above 10 µM; under setting [6], above 2 µM. Also, the IC50 under setting [7] was above 2 µM, the IC50 under setting [8] was above 2 µM and the IC50 under setting [9] was above 2 µM.

In the case of `CC(=O)c1c(S)[nH]c2c(Br)ccc(Cl)c2c1=O` [Compound 62, 3-acetyl-8-bromo-5-chloro-2-mercaptoquinolin-4(1H)-one], the IC50 under setting [1] is above 2 µM; the IC50 under setting [2] is above 2 µM; the IC50 under setting [3] is above 10 µM; the IC50 under setting [4] was above 2 µM; the IC50 under setting [5] was above 10 µM; the IC50 under setting [6] is above 2 µM. Further, the IC50 by setting is: under setting [7], above 2 µM; under setting [8], above 2 µM; under setting [9], above 2 µM.

With `COc1cccc2[nH]c([S+]([O-])Cc3ccc(S(F)(F)(F)(F)F)cc3)c(C(C)=O)c(=O)c12` (stereo not drawn) [Compound 93, 3-acetyl-5-methoxy-2-((4-(pentafluoro--sulfanyl)benzyl)sulfinyl)quinolin-4(1H)-one], the IC50 is, setting by setting: under setting [10], above 2 µM; under setting [11], above 10 µM; under setting [12], above 2 µM; under setting [13], above 10 µM; under setting [14], above 2 µM; under setting [15], above 2 µM. Besides, the IC50 was above 2 µM under setting [16], above 2 µM under setting [17] and above 2 µM under setting [18].

In the case of `CC(=O)c1c(S(C)(=O)=O)n(C(=O)c2ccc(Br)cc2)c2c(Br)ccc(Cl)c2c1=O` [Compound 21, 3-acetyl-8-bromo-1-(4-bromobenzoyl)-5-chloro-2-(methylsulfonyl)quinolin-4(1H)-one], the IC50 was above 2 µM under setting [1]; above 2 µM under setting [2]; above 10 µM under setting [3]; above 2 µM under setting [4]; above 10 µM under setting [5]; above 2 µM under setting [6]. Besides, the IC50 runs as follows: under setting [7], above 2 µM; under setting [8], above 2 µM; under setting [9], above 2 µM.

As for `CC(=O)c1c(SCC#N)[nH]c2c(Br)ccc(Cl)c2c1=O` [Compound 66, 2-((3-acetyl-8-bromo-5-chloro-4-oxo-1,4-dihydroquinolin-2-yl)thio)acetonitrile], the IC50 is above 2 µM under setting [1]; above 2 µM under setting [2]; above 10 µM under setting [3]; above 2 µM under setting [4]; above 10 µM under setting [5]; above 2 µM under setting [6]. The IC50 by setting is: under setting [7], above 2 µM; under setting [8], above 2 µM; under setting [9], above 2 µM.

With `CC(=O)c1c(Sc2ccc(Br)cc2)[nH]c2c(Br)ccc(Cl)c2c1=O` [Compound 16, 3-acetyl-8-bromo-2-((4-bromophenyl)thio)-5-chloroquinolin-4(1H)-one], the IC50 by setting is: under setting [1], above 2 µM; under setting [2], above 2 µM; under setting [3], above 10 µM; under setting [4], above 2 µM; under setting [5], above 10 µM; under setting [6], above 2 µM. In addition, the IC50 runs as follows: under setting [7], above 2 µM; under setting [8], above 2 µM; under setting [9], above 2 µM.
